Source: ChEMBL document CHEMBL5727551, “5-(n-[6,5]-fused bicyclic aryl tetrahydroisoquinolin-6-yl) pyridin-3-yl acetic acid derivatives as inhibitors of human immunodeficiency virus replication” (2020)

Assay: Inhibition of HIV Replication: A recombinant NL-RLuc proviral clone was constructed in which a section of the nef gene from NL4-3 was replaced with the Renilla Luciferase gene. This virus is fully infectious and can undergo multiple cycles of replication in cell culture. In addition, the luciferous reporter provides a simple and easy method for quantitating the extent of virus growth and consequently, the antiviral activity of test compounds. The plasmid pNLRLuc contains the proviral NL-Rluc DNA cloned into pUC 18 at the PvuII site. The NL-RLuc virus was prepared by transfection of 293T cells with the plasmid pNLRLuc. Transfections were performed using the LipofectAMINE PLUS kit from Invitrogen (Carlsbad, Calif.) according to the manufacturer and the virus generated was titered in MT-2 cells. For susceptibility analyses, the titrated virus was used to infect MT-2 cells in the presence of compound, and after 5 days of incubation, cells were processed and quantitated for virus growth by the amount of expressed luciferase. Assay media was RPMI 1640 supplemented with 10% heat inactivated fetal bovine serum (FBS), 100 units/ml penicillin G/100 units/ml streptomycin, 10 mM HEPES buffer pH 7.55 and 2 mM L-glutamine. The results from at least 2 experiments were used to calculate the EC50 values. Luciferase was quantitated using the Dual Luciferase kit from Promega (Madison, Wis.). […]
Type: cell-based

## Cc1nc(C)c([C@H](OC(C)(C)C)C(=O)O)c(N2CCC(C)(C)CC2)c1-c1ccc2c(c1)CCN(c1ncnc3cc[nH]c13)C2
  EC50: 20 nM
